Experiments:
[1] = Pharmacokinetic parameters and characteristics of mirdametinib (Table A); format: in vivo, human; conditions: for Tmax [median (range)]: post dose
Description: (§1) Study treatment was administered orally at a twice daily (BID) dose specified in the table below. Dosing was on a 28-day Cycle (4-week course) with a 3 week on/1 week off schedule. The treatment period will last for up to 24 Cycles followed by a 30-day Safety Follow-Up period.

[2] = test system: NF1-associated plexiform neurofibromas (PN); assay: Phase 2b trial in adult and pediatric patients with NF1-associated inoperable plexiform neurofibromas; response by BICR volumetric MRI per REiNS criteria; format: in vivo, human; conditions: for DoR ≥12 months: Kaplan-Meier based approach, data cut-off September 2023
Description: Participants were screened (assessed for eligibility as described below). […] The median age was 34.5 years (range 18 to 69 years); 85% were white and 64% were female. […] The most commonly reported morbidities were pain (90%) and disfigurement or major deformity (52%).
The median age was 10 years (range 2 to 17 years); 66% were white and 54% were female. […] The most commonly reported morbidities were pain (70%) and disfigurement or major deformity (50%).
as §1
A partial response was defined as PN decrease≥20% compared to baseline using centrally read MRI volumetric analysis.
The major efficacy outcome measure was confirmed objective response rate (ORR), defined as the percentage of patients with complete response (disappearance of the target PN) or confirmed partial response (≥20% reduction in PN volume confirmed at a subsequent tumor assessment within 2-6 months during the 24-cycle treatment phase). Responses were assessed by blinded independent central review (BICR) using volumetric magnetic resonance imaging (MRI) analysis per Response Evaluation in Neurofibromatosis and Schwannomatosis (REINS) criteria. A secondary efficacy objective was to determine the duration of response for patients who achieved a confirmed objective response.

[3] = Pediatric patients (2 to <18 years)

Structure (SMILES): O=C(NOC[C@H](O)CO)c1ccc(F)c(F)c1Nc1ccc(I)cc1F (single isomer, unassigned) [mirdametinib]
- Steady-state exposure AUClast [geometric mean (geometric % CV)] ([1]; Adult patients (≥18 years)): Adult patients (≥18 years): 431 (43%) ng · h/mL
- Steady-state exposure Cmax [geometric mean (geometric % CV)] ([1]; Adult patients (≥18 years)): Adult patients (≥18 years): 188 (52%) ng/mL
- Tmax [median (range)] ([1]; Capsule): Capsule: 1.08 (0.00-4.17) hours post dose
- Steady-state exposure AUClast [geometric mean (geometric % CV)] [1, 3]: Pediatric patients (2 to <18 years): 459 (46%) ng · h/mL
- Steady-state exposure Cmax [geometric mean (geometric % CV)] [1, 3]: Pediatric patients (2 to <18 years): 191 (62%) ng/mL
- Tmax [median (range)] ([1]; Tablet): Tablet: 0.83 (0.42-3.02) hours post dose
- DoR ≥12 months ([2]; Adult responders): 18 (75%) n (%)
- DoR ≥12 months ([2]; Pediatric responders): 22 (76%) n (%)
- Median time to onset of response ([2]; adult cohort, range 4.0 to 19.0 months): 7.8 months
- Median time to onset of response ([2]; pediatric cohort, range 4.1 to 18.8 months): 7.9 months
